In US20230139171A1 (SITA Information Networking Computing UK Limited, priority 2019, published 2023):
Read-outs that look alike come from different tables or passages of the source.

Experiments:
[1] = biological target: T1, human TLR7 (Homo sapiens, UniProt Q9NYK1); assay: TLR7 inhibition reporter assay (HEK-Blue cells, SEAP reporter, gardiquimod stimulation); format: cell-based; settings: gardiquimod 7.5 μM
T1 construct: host or cells: HEK-Blue cells
T1 sequence (Q9NYK1 27-1049): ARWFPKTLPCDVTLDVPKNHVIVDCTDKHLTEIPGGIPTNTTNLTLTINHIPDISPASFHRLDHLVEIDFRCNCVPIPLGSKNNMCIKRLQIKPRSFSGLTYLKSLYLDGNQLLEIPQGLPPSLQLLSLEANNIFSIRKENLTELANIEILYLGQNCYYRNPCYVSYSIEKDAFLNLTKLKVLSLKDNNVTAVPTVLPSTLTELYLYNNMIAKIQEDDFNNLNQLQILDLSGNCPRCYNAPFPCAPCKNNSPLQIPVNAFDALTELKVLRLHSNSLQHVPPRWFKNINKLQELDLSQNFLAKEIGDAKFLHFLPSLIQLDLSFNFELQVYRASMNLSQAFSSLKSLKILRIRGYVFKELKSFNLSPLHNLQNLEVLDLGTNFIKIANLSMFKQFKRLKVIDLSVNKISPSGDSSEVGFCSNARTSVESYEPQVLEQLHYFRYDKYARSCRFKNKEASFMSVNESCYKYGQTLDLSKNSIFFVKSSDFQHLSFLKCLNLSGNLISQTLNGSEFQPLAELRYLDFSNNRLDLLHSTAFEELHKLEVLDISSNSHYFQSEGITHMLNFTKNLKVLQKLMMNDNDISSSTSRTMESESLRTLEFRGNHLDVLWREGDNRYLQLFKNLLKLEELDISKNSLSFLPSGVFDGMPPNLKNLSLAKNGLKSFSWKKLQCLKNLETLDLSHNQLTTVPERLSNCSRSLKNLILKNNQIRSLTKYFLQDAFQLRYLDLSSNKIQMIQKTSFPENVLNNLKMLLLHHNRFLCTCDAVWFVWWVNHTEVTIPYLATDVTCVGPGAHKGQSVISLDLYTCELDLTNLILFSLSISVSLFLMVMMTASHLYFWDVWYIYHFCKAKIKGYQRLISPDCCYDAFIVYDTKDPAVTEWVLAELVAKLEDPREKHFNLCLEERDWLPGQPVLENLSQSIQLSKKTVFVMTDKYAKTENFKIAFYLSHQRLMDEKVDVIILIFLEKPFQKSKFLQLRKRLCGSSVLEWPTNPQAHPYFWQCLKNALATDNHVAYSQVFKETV
In short: (§1)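 Human TLR7/8/9 HEK-Blue reporter lines; dose range 0.05 nM–50 μM; 30 min RT preincubation; stimulus gardiquimod 7.5 μM / R848 15.9 μM / ODN2006 5 nM respectively; 22 h, 37 °C; SEAP detected colorimetrically.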

[2] = biological target: T2, human TLR8 (Homo sapiens, UniProt Q9NR97); assay: TLR8 inhibition reporter assay (HEK-Blue cells, SEAP reporter, R848 stimulation); format: cell-based; settings: R848 15.9 μM
T2 construct: host or cells: HEK-Blue cells
T2 sequence (Q9NR97 27-1041): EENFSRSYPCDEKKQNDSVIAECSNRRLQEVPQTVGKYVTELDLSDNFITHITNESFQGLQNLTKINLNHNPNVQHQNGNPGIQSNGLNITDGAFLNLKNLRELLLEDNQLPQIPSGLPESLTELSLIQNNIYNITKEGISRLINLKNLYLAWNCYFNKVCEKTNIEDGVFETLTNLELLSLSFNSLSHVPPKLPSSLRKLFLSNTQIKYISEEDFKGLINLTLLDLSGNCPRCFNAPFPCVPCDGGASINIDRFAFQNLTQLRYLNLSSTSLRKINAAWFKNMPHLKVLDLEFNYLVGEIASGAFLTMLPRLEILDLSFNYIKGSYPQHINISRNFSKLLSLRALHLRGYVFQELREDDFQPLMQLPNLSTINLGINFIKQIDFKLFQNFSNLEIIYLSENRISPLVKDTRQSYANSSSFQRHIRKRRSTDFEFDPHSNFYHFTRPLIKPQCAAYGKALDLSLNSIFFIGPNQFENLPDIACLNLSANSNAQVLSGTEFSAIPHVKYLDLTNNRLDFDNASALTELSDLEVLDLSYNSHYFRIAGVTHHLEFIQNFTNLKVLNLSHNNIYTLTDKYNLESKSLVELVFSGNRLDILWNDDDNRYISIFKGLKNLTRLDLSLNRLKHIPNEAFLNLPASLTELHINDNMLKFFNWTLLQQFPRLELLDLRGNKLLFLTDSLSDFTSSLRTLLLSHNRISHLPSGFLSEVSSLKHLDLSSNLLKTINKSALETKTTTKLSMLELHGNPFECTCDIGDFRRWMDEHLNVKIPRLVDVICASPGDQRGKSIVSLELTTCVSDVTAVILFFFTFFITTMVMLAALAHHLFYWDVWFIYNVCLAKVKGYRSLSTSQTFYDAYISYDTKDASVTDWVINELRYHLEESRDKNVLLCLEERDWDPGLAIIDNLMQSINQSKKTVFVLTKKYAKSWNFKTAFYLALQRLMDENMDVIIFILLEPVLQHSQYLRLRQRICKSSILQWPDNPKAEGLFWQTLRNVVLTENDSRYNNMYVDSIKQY
In short: as §1

[3] = HEK-Blue cells overexpressing human TLR7, SEAP reporter, read-out: TLR7 IC50
[4] = HEK-Blue cells overexpressing human TLR8, SEAP reporter, read-out: TLR8 IC50

Structure (SMILES) | IC50 [1, 3] [nM] | IC50 [2, 4] [nM] | IC50 ([1]; TLR7 IC50, HEK-Blue cells overexpressing human TLR7, SEAP reporter) [nM] | IC50 ([2]; TLR8 IC50, HEK-Blue cells overexpressing human TLR8, SEAP reporter) [nM]
Cc1cc(-c2[nH]c3sc(C(=O)N4CCOCC4)nc3c2C(C)C)cn2ncnc12 [Example 398, (6-isopropyl-5-(8-methyl-[1,2,4]triazolo[1,5-a]pyridin-6-yl)-4H-pyrrolo[3,2-d]thiazol-2-yl)(morpholino)methanone] | 137 | 365 |  | 
Cc1cc(-c2[nH]c3sc(C(=O)NCC4(S(C)(=O)=O)CC4)nc3c2C(C)C)cn2ncnc12 [Example 399, 6-isopropyl-5-(8-methyl-[1,2,4]triazolo[1,5-a]pyridin-6-yl)-N-((1-(methylsulfonyl)cyclopropyl)methyl)-4H-pyrrolo[3,2-d]thiazole-2-carboxamide] | 126 | 132 |  | 
Cc1c(-c2[nH]c3sc(CNCC(N)=O)nc3c2C(C)C)cn2ncnc2c1C [Example 402, 2-(((5-(7,8-dimethyl-[1,2,4]triazolo[1,5-a]pyridin-6-yl)-6-isopropyl-4H-pyrrolo[3,2-d]thiazol-2-yl)methyl)amino)acetamide] | 35.1 | 297 |  | 
Cc1c(-c2[nH]c3sc(CN4CC5(C4)CS(=O)(=O)C5)nc3c2C(C)C)cn2ncnc2c1C [Example 403, 6-((5-(7,8-dimethyl-[1,2,4]triazolo[1,5-a]pyridin-6-yl)-6-isopropyl-4H-pyrrolo[3,2-d]thiazol-2-yl)methyl)-2-thia-6-azaspiro[3.3]heptane 2,2-dioxide] |  |  | 26.9 | 156
Cc1c(-c2[nH]c3sc(CN4CCNC(=O)C4)nc3c2C(C)C)cn2ncnc2c1C [Example 406, 4-((5-(7,8-dimethyl-[1,2,4]triazolo[1,5-a]pyridin-6-yl)-6-isopropyl-4H-pyrrolo[3,2-d]thiazol-2-yl)methyl) piperazin-2-one] | 2.74 | 142 |  | 

The next lines start with results.

IC50 [1, 3] [nM] | IC50 [2, 4] [nM] | Structure (SMILES) | IC50 ([1]; TLR7 IC50, HEK-Blue cells overexpressing human TLR7, SEAP reporter) [nM] | IC50 ([2]; TLR8 IC50, HEK-Blue cells overexpressing human TLR8, SEAP reporter) [nM]
43.6 | 124 | Cc1c(-c2[nH]c3sc(CN4CC5(CCOCC5)C4)nc3c2C(C)C)cn2ncnc2c1C [Example 404, 2-((5-(7,8-dimethyl-[1,2,4]triazolo[1,5-a]pyridin-6-yl)-6-isopropyl-4H-pyrrolo[3,2-d]thiazol-2-yl)methyl)-7-oxa-2-azaspiro[3.5]nonane] |  | 
28.6 | 279 | Cc1c(-c2[nH]c3sc(CN4CCOCC4)nc3c2C(C)C)cn2ncnc2c1C [Example 407, 4-((5-(7,8-dimethyl-[1,2,4]triazolo[1,5-a]pyridin-6-yl)-6-isopropyl-4H-pyrrolo[3,2-d]thiazol-2-yl)methyl)morpholine] |  | 
47.4 | 168 | Cc1c(-c2[nH]c3sc(CN4CC5(COC5)C4)nc3c2C(C)C)cn2ncnc2c1C [Example 408, 6-((5-(7,8-dimethyl-[1,2,4]triazolo[1,5-a]pyridin-6-yl)-6-isopropyl-4H-pyrrolo[3,2-d]thiazol-2-yl)methyl)-2-oxa-6-azaspiro[3.3]heptane] |  | 
